Results: US4758558A, “N-(substituted)-[7-(2-cyanoacetamido)cephalosporanic]amide derivatives having antibiotic utility” (priority 1982, dated 1988)

Key:
[1] = system: Escherichia coli; test: Effect on intestinal bacteria: number of Escherichia coli in feces; assay type: in vivo, ICR mice; conditions: after oral administration for 2 days, 500 mg/kg/day, female ICR mice; before: 6.4
Protocol: (b) Effect on the intestinal bacterial colonies:
[…] Each portion of the two kinds of the feces was cultured at 25° C. or 37° C. in a variety of culture medium for one to five days to see the state of Escherichia coli, Pseudomonas aeruginosa, a Streptococcus species, a Lactobacillus species, Lactobacillus bifidus and a Bacteroides species in the culture medium.
(§1) Effects of the present compound on intestinal bacteria
Each of the two fecal […] by weight of an anaerobic diluent (a phosphoric acid buffer solution) and was ground in a mortar, and 0.1 ml of the thus ground material was smeared on each of the following culture media for the following bacteria, and the thus inoculated culture media were incubated under the following conditions. Thereafter, the number of the following bacteria in each of the thus cultured media was determined.

[2] = system: a species of Streptococcus; test: Effect on intestinal bacteria: number of a sp. of Streptococcus in feces; assay type: in vivo, ICR mice; conditions: mouse, in vivo, po, 500 mg/kg/day
Protocol: (§2) (b) Effect on the intestinal bacterial colonies: […]
as §1
(§3) Each of the present compounds respectively produced in Examples 1 to 18 was orally administered continuously for 2 days at a daily dose rate of 500 mg/kg body weight to each of five female ICR mice of each group after 6 weeks of their birth.
(§4) Each of the two fecal specimens respectively collected from each mouse before and after one day of the administration was diluted with 100 times by weight of an anaerobic diluent (a phosphoric acid buffer solution) and was ground in a mortar, and 0.1 ml of the thus ground material was smeared on each of the following culture media for the following bacteria, and the thus inoculated culture media were incubated under the following conditions. Thereafter, the number of the following bacteria in each of the thus cultured media was determined.
a species of Streptococcus
TATAC agar 37° C., one day, […]

[3] = system: Pseudomonas aeruginosa; test: Effect on intestinal bacteria: number of Pseudomonas aeruginosa in feces; assay type: in vivo, ICR mice; conditions: mouse, in vivo, po, 500 mg/kg/day
Protocol: as §1, §3, §4
NAC agar 37° C., one day, […]

[4] = system: Escherichia coli IFO 12734; test: Antibacterial activity in vitro (MIC) against Escherichia coli; assay type: cell-based; conditions: IFO12734, Mueller-Hinton agar, 18 to 24 hours, 37° C., read-out: MIC (minimum growth inhibiting concentration) against Escherichia coli
Protocol: (§5) (c) Anti-bacterial activity (in vitro):
(§6) Minimum concentration of the present compound inhibiting the growth of the following bacteria was determined according to the standard procedures of Japan Society of Chemotherapy:
Escherichia coli IFO 12734 and
(§7) Determination of the antibacterial activity of the present compound produced in Examples 1 to 18, respectively was carried out according to the standard procedures of Japan Society of Chemotherapy for finding MIC (the minimum concentration of a specimen to inhibit the growth of a species of bacteria).
(§8) A series of diluted solutions of each of the present compound were mixed with 9 times by weight of Mueller-Hinton's culture medium as the culture medium for determining the sensitivity of a bacterial species, and flat agar culture plates were prepared by using the thus obtained mixture.
(§9) Each of the liquids respectively containing one of the bacterial species shown in Table 2 was smeared onto each of the thus prepared flat agar culture plates with a platinum loop, in length of about 2 cm, and the thus treated plates were incubated for 18 to 24 hours at 37° C. Thereafter, by observing the growth state of each bacterial species on the cultured plates, the minimum concentration of each compound completely inhibiting the growth of each bacterial species was found.

[5] = system: Lactobacillus bifidus; test: Effect on intestinal bacteria: number of Lactobacillus bifidus in feces; assay type: in vivo, ICR mice; conditions: mouse, in vivo, po, 500 mg/kg/day
Protocol: as §2, §1, §3, §4
BS agar 37° C., 5 days, […]

[6] = system: a species of Lactobacillus; test: Effect on intestinal bacteria: number of a sp. of Lactobacillus in feces; assay type: in vivo, ICR mice; conditions: mouse, in vivo, po, 500 mg/kg/day
Protocol: as §2, §1, §3, §4
a species of Lactobacillus
LBS agar 37° C., 5 days, […]

[7] = system: Staphylococcus aureus IAM 1011; test: Antibacterial activity in vitro (MIC) against Staphylococcus aureus; assay type: cell-based; conditions: IAM1011, Mueller-Hinton agar, 18 to 24 hours, 37° C., read-out: MIC (minimum growth inhibiting concentration) against Staphylococcus aureus
Protocol: as §5, §6
Staphylococcus aureus IAM 1011
as §7, §8, §9

[8] = system: a species of Bacteroides; test: Effect on intestinal bacteria: number of a sp. of Bacteroides in feces; assay type: in vivo, ICR mice; conditions: mouse, in vivo, po, 500 mg/kg/day
Protocol: as §2, §1, §3, §4
a species of Bacteroides
NBGT agar 37° C., 5 days, […]

Row | Number of Escherichia coli after the administration [1] | Number of a sp. of Streptococcus after the administration [2] | Number of Pseudomonas aeruginosa after the administration [3] | MIC [4] | Number of Lactobacillus bifidus after the administration [5] | Number of a sp. of Lactobacillus after the administration [6] | MIC [7] | Number of a sp. of Bacterioides after the administration [8] | SMILES
1 | 6.6 Log10 (number of bacteria/g feces) | 6.6 Log10 (number of bacteria/g feces) | < 3.0 Log10 (number of bacteria/g feces) | ≥ 100 µg/mL | 8.4 Log10 (number of bacteria/g feces) | 9.1 Log10 (number of bacteria/g feces) | ≥ 100 µg/mL | 8.9 Log10 (number of bacteria/g feces) | COC(=O)Cc1ccc(NC(=O)C2=C(COC(C)=O)CSC3C(NC(=O)CC#N)C(=O)N23)cc1 (stereo not shown) [Example 8, N-(4-carbomethoxymethylphenyl)-7-[(2-cyanoacetamido)cephalosporanic]amide]
2 | 6.5 Log10 (number of bacteria/g feces) | 6.7 Log10 (number of bacteria/g feces) | < 3.0 Log10 (number of bacteria/g feces) | ≥ 100 µg/mL | 8.4 Log10 (number of bacteria/g feces) | 8.9 Log10 (number of bacteria/g feces) | ≥ 100 µg/mL | 8.5 Log10 (number of bacteria/g feces) | COC(=O)CNC(=O)c1ccc(NC(=O)C2=C(COC(C)=O)CSC3C(NC(=O)CC#N)C(=O)N23)cc1 (stereo not shown) [Example 9, N-(4-carbomethoxymethylcarbamoylphenyl)-[7-(2-cyanoacetamido)cephalosporanic]amide]
3 | 6.5 Log10 (number of bacteria/g feces) | 6.7 Log10 (number of bacteria/g feces) | < 3.0 Log10 (number of bacteria/g feces) | ≥ 25 µg/mL | 8.2 Log10 (number of bacteria/g feces) | 8.9 Log10 (number of bacteria/g feces) | ≥ 1.56 µg/mL | 8.8 Log10 (number of bacteria/g feces) | Cc1nnc(SCC2=C(C(=O)Nc3ccc(C(=O)O)cc3)N3C(=O)C(NC(=O)Cn4cnnn4)C3SC2)s1 (stereo not shown) [Example 12, N-(4-carboxyphenyl)-{7-(1-1H-tetrazolylacetamido)-3-[2-(5-methyl-1,3,4-thiadiaziolyl)thiomethyl]-3-cephem-4-carboxylic}amide]

Continued, molecule first:

Row | SMILES | Number of Escherichia coli after the administration [1] | Number of a sp. of Streptococcus after the administration [2] | Number of Pseudomonas aeruginosa after the administration [3] | MIC [4] | Number of Lactobacillus bifidus after the administration [5] | Number of a sp. of Lactobacillus after the administration [6] | MIC [7] | Number of a sp. of Bacterioides after the administration [8]
4 | CC(=O)OCC1=C(C(=O)Nc2ccc(C(N)=O)cn2)N2C(=O)C(NC(=O)CC#N)C2SC1 (stereo not shown) [Example 11, N-(nicotinic amido)-[7-(2-cyanoacetamido)cephalosporanic]amide] | 6.8 Log10 (number of bacteria/g feces) | 6.7 Log10 (number of bacteria/g feces) | < 3.0 Log10 (number of bacteria/g feces) | ≥ 100 µg/mL | 8.2 Log10 (number of bacteria/g feces) | 9.1 Log10 (number of bacteria/g feces) | ≥ 100 µg/mL | 8.6 Log10 (number of bacteria/g feces)
5 | COC(=O)Cc1ccc(NC(=O)C2=C(CSc3nnc(C)s3)CSC3C(NC(=O)Cn4cnnn4)C(=O)N23)cc1 (stereo not shown) [Example 14, N-(4-carbomethoxymethylphenyl)-{7-(1-1H-tetrazolylacetamido)-3-[2-(5-methyl-1,3,4-thiadiazolyl)thiomethyl]-3-cephem-4-carboxylic}amide] | 6.4 Log10 (number of bacteria/g feces) | 6.6 Log10 (number of bacteria/g feces) | < 3.0 Log10 (number of bacteria/g feces) | ≥ 100 µg/mL | 8.2 Log10 (number of bacteria/g feces) | 9.0 Log10 (number of bacteria/g feces) | ≥ 12.5 µg/mL | 8.4 Log10 (number of bacteria/g feces)
